Source: patent US9206192B2, “Trolox derivative-modified fat-soluble anti-cancer pharmaceutical compounds, preparations, preparing methods and use thereof” (CHIA TAI TIANQING PHARMACEUTICAL GROUP CO., LTD, priority 2011, dated 2015)

Experiments:
Assay type in all cases: cell-based
[1] = tested on: human ovarian cancer cells (A2780s); assay: In vitro cytotoxicity test, MTT assay, ovarian cancer cells; details: 72 h incubation, read-out: GI50 Ovarian cancer cell (A2780s)
Procedure: (§1) In this example, GI50 values (the concentration of a drug that inhibits the growth of cancer cells by 50%) of the novel anti-cancer pharmaceutical compounds of the present invention on the inhibition of human ovarian cancer cells (A2780s), colon cancer cells (HT-29), liver cancer HePG2 cells and lung cancer cells (A549) were determined by MTT assay, and further compared with that of anti-cancer drug irinotecan to evaluate in vitro cytotoxicity of the pharmaceutical compounds of the present invention.
(§2) MTT assay: Cells in logarithmic growth phase were seeded in 96-well culture plate at 100 μL/well and a cell density of 10^5/mL. After the cells were incubated for 18 h, the medium was replaced, and thereto the test compound samples with different concentrations were then added at 150 μL/well. The blank group was the wells to which only a RPMI 1640 culture medium comprising 10% fetal bovine serum was added without the addition of cells (for zero setting). The negative control group was the wells to which the equal volume of RPMI 1640 culture medium comprising 10% fetal bovine serum was added and the positive control group was the wells to which the equal volume of 13 μg/ml positive drug was added. Each group had three wells. After the cells were incubated for 72 h, MTT (5 mg/mL) solution was added at 15 μL/well, and the cells were further incubated for 4 h. The supernatant was discarded, and DMSO was added at 150 μL/well. The mixture was shaken and blended for 10 min. After the crystal was completely dissolved, the absorbance (D) value of each well was detected on microplate reader at a wavelength of 490 nm. The cell growth inhibition rate was calculated according to the following equation: Cell growth inhibition rate=(1−average D value of test group/average D value of control group)×100%.

liver cancer HePG2 cells = assay: In vitro cytotoxicity test, MTT assay, liver cancer cells; details: Homo sapiens, 72 h incubation, read-out: GI50 Live cancer cells (HePG2)
Procedure: as §1
as §2, with “After the cells were incubated for 72 h, MTT (5 mg/mL) solution was added at 15 μL/well, and the cells were further incubated for 4 h. The supernatant was discarded, and DMSO was added at 150 μL/well. The mixture was shaken and blended for 10 min.” left out, “The cell growth inhibition rate was calculated according to the following equation: Cell growth inhibition rate=(1−average D value of test group/average D value of control group)×100%.” left out

[2] = tested on: colon cancer cells (HT-29); assay: In vitro cytotoxicity test, MTT assay, colon cancer cells; details: Homo sapiens, 72 h incubation
Procedure: as §1
as §2, with “After the cells were incubated for 72 h, MTT (5 mg/mL) solution was added at 15 μL/well, and the cells were further incubated for 4 h. The supernatant was discarded, and DMSO was added at 150 μL/well. The mixture was shaken and blended for 10 min.” left out, “The cell growth inhibition rate was calculated according to the following equation: Cell growth inhibition rate=(1−average D value of test group/average D value of control group)×100%.” left out

lung cancer cells (A549) = assay: In vitro cytotoxicity test, MTT assay, lung cancer cells; details: Homo sapiens, 72 h incubation
Procedure: as §1, §2

Row | Compound | GI50 [1] | GI50 (liver cancer HePG2 cells) | GI50 [2] | GI50 (lung cancer cells (A549))
1 | CCc1c2c(nc3ccc(OC(=O)N4CCC(N5CCCCC5)CC4)cc13)-c1cc3c(c(=O)n1C2)COC(=O)[C@]3(O)CC [Irinotecan, irinotecan, reference compound] | 19300 nM | 9440 nM | 15200 nM | 58.1 nM
2 | CCCCCCOC(=O)[C@@]1(C)CCc2c(C)c(OC(=O)CCC(=O)Oc3ccc4nc5c(c(CC)c4c3)Cn3c-5cc4c(c3=O)COC(=O)[C@]4(O)CC)c(C)c(C)c2O1 [MXL-001, 7-ethyl-10-hydroxycamptothecin R-(+)-6-hydroxy-2,5,7,8-tetramethylchroman-2-carboxylic acid n-hexyl ester-6-succinate] | 40.9 nM |  |  | 4600 nM
3 | CCCCCCCCCCCCOC(=O)[C@@]1(C)CCc2c(C)c(OC(=O)CCC(=O)Oc3ccc4nc5c(c(CC)c4c3)Cn3c-5cc4c(c3=O)COC(=O)[C@]4(O)CC)c(C)c(C)c2O1 [MXL-002, 7-ethyl-10-hydroxycamptothecin R-(+)-6-hydroxy-2,5,7,8-tetramethylchroman-2-carboxylic acid dodecyl ester-6-succinate] | 17.8 nM |  |  | 2100 nM
4 | CCCCCCCCCCCCCCCCOC(=O)[C@@]1(C)CCc2c(C)c(OC(=O)CCC(=O)Oc3ccc4nc5c(c(CC)c4c3)Cn3c-5cc4c(c3=O)COC(=O)[C@]4(O)CC)c(C)c(C)c2O1 [MXL-003, 7-ethyl-10-hydroxycamptothecin R-(+)-6-hydroxy-2,5,7,8-tetramethylchroman-2-carboxylic acid hexadecyl ester-6-succinate] | 16.9 nM | 164 nM | 45 nM | 169 nM
